Reference: PubChem BioAssay AID743104 (Vanderbilt Specialized Chemistry Center, 2013)

Each molecule was assayed against Muscarinic acetylcholine receptor M5 (Rattus norvegicus) (UniProt P08911) (assay: species ortholog inhibition of rat M5 response – cell-based, CHO-K1, Fluo-4 calcium flux, selectivity assay for human M5 NAM project (AID 743104)). Conditions: CHO-K1 rat M5, Fluo-4 calcium flux, ACh EC20.
Muscarinic acetylcholine receptor M5 (Rattus norvegicus), sequence (P08911 whole entry, looked up): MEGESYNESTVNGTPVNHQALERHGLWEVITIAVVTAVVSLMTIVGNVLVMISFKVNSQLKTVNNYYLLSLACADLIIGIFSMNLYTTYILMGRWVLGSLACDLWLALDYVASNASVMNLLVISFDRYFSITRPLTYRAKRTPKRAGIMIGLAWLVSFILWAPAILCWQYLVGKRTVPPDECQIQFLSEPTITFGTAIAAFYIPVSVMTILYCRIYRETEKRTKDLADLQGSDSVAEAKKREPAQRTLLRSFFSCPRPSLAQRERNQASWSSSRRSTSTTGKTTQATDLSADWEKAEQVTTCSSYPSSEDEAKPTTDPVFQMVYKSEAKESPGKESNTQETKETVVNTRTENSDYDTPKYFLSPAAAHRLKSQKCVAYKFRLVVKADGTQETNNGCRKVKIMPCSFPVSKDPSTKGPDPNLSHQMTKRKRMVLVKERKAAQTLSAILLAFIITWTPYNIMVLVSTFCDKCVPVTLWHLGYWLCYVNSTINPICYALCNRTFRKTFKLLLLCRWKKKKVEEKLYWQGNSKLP

| IC50 | SMILES |
| --- | --- |
| 6.21 µM | O=C(c1ccc(F)cc1)N1CCN2C(=O)c3ccccc3C12c1ccccc1 (stereo not drawn) |
| 2 µM | O=C(c1ccc(F)c(F)c1)N1CCN2C(=O)c3ccccc3C12c1ccccc1 (stereo not drawn) |
| 3.54 µM | O=C(c1cc(F)cc(F)c1)N1CCN2C(=O)c3ccccc3C12c1ccc(Cl)cc1 (stereo not drawn) |
